The values that follow come from patent publication US10092551B2, “Spiro-thiazolones” (Hoffmann-La Roche Inc., priority 2014, dated 2018).

The structures appear in SMILES notation.

human V1a receptor, sequence (P37288 whole entry): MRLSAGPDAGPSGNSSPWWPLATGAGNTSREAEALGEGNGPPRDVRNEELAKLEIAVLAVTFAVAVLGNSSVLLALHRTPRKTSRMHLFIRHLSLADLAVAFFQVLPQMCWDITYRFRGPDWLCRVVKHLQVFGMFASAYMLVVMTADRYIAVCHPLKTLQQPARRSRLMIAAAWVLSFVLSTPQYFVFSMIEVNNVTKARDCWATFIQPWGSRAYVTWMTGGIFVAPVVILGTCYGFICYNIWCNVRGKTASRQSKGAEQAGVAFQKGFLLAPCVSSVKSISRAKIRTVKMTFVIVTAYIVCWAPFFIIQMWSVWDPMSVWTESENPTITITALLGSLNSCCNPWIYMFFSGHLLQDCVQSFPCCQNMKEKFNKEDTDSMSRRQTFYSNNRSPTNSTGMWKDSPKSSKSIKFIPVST

The target of this assay is human V1a receptor (Homo sapiens (Human), UniProt P37288). As to the kind of experiment: human V1a receptor binding studies (3H-Vasopressin, SPA beads). Conditions: membranes of HEK293 cells transiently transfected with human V1a receptor, Ki by Cheng-Prussoff. In a few lines:
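Membranes from HEK293 cells transiently expressing cloned human V1a receptor, bound on yttrium silicate SPA beads with 4 nM 3H-vasopressin (added stock) and serially diluted compound, 1 h at room temperature. Non-specific binding defined with cold vasopressin; IC50 by non-linear regression, Ki via Cheng-Prusoff.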
Regarding `COC1CCCC/C1=C1/SC(N2CCC3(CC2)OCc2ncccc23)=NC1=O` (centres unmarked) [Example 164, (5E/Z)-5-(2-methoxycyclohexylidene)-2-(1′H,7H-spiro[furo[3,4-b]pyridine-5,4′-piperidin]-1′-yl)-1,3-thiazol-4(5H)-one], the “pKi hV1a” value stood at 6.9.
As for `C/C(=C1/SC(N2CCC3(CC2)OCc2ncccc23)=NC1=O)c1cccnc1` [Example 165, (5E/Z)-5-[1-(pyridin-3-yl)ethylidene]-2-(1′H,7H-spiro[furo[3,4-b]pyridine-5,4′-piperidin]-1′-yl)-1,3-thiazol-4(5H)-one], the “pKi hV1a” value worked out at 7.5.
Consider `C/C(=C1/SC(N2CCC3(CC2)OCc2ncccc23)=NC1=O)c1ccc(C)nc1` [Example 166, (5E/Z)-5-[1-(6-methylpyridin-3-yl)ethylidene]-2-(1′H,7H-spiro[furo[3,4-b]pyridine-5,4′-piperidin]-1′-yl)-1,3-thiazol-4(5H)-one], for which the “pKi hV1a” value was found to be 7.1.
As to `C/C(=C1/SC(N2CCC3(CC2)OCc2ncccc23)=NC1=O)c1oc(C)nc1C` [Example 167, (5E/Z)-5-[1-(2,4-dimethyl-1,3-oxazol-5-yl)ethylidene]-2-(1′H,7H-spiro[furo[3,4-b]pyridine-5,4′-piperidin]-1′-yl)-1,3-thiazol-4(5H)-one], the “pKi hV1a” value was found to be 6.5.
`O=C1N=C(N2CCC3(CC2)OCc2ncccc23)S/C1=C1/COCc2ccccc21` [Example 168, (5E/Z)-5-(1H-isochromen-4(3H)-ylidene)-2-(1′H,7H-spiro[furo[3,4-b]pyridine-5,4′-piperidin]-1′-yl)-1,3-thiazol-4(5H)-one]: the “pKi hV1a” value is given as 8.2.
Under `[2H]C([2H])([2H])/C(=C1/SC(N2CCC3(CC2)OCc2ccccc23)=NC1=O)c1ccc(C)nc1` [Example 169, (5Z)-5-[1-(6-methylpyridin-3-yl)(^2H3)ethylidene]-2-(1′H,3H-spiro[2-benzofuran-1,4′-piperidin]-1′-yl)-1,3-thiazol-4(5H)-one] stands 8.8.
As for `[2H]C([2H])([2H])/C(=C1\SC(N2CCC3(CC2)OCc2ccccc23)=NC1=O)c1ccc(C)nc1` [Example 170, (5E)-5-[1-(6-methylpyridin-3-yl)(^2H3)ethylidene]-2-(1′H,3H-spiro[2-benzofuran-1,4′-piperidin]-1′-yl)-1,3-thiazol-4(5H)-one], the “pKi hV1a” value is given as 8.0.
Take `[2H]C([2H])([2H])/C(=C1/SC(N2CCC3(CC2)OCc2ccccc23)=NC1=O)c1ccc(Cl)nc1` [Example 171, (5Z)-5-[1-(6-chloropyridin-3-yl)(^2H3)ethylidene]-2-(1′H,3H-spiro[2-benzofuran-1,4′-piperidin]-1′-yl)-1,3-thiazol-4(5H)-one]: the “pKi hV1a” value amounted to 9.3.
As for `[2H]C([2H])([2H])/C(=C1\SC(N2CCC3(CC2)OCc2ccccc23)=NC1=O)c1ccc(Cl)nc1` [Example 172], the “pKi hV1a” value is 8.9.
For the molecule `[2H]C([2H])([2H])/C(=C1/SC(N2CCC3(CC2)OCc2ccccc23)=NC1=O)c1ccccc1` [Example 173, (5Z)-5-[1-phenyl(^2H3)ethylidene]-2-(1′H,3H-spiro[2-benzofuran-1,4′-piperidin]-1′-yl)-1,3-thiazol-4(5H)-one], the “pKi hV1a” value turned out to be 8.8.
For `[2H]C([2H])([2H])/C(=C1\SC(N2CCC3(CC2)OCc2ccccc23)=NC1=O)c1ccccc1` [Example 174, (5E)-5-[1-phenyl(^2H3)ethylidene]-2-(1′H,3H-spiro[2-benzofuran-1,4′-piperidin]-1′-yl)-1,3-thiazol-4(5H)-one] the value was 8.7.
